Results published in PubChem BioAssay AID179 (DTP/NCI, 2004).
Active and inactive are the calls of the source.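 The calls were made as follows: active = compounds giving half or more protection of infected cells from virus-caused growth loss, again on retest; inactive = the rest.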 Where a SMILES comes first, the peptide text is derived from it. The star is where a group is joined. Boc = CC(C)(C)OC(=O)*

Tested on: CEM cells HIV-1 protection, formazan growth assay
Test: NCI AIDS Antiviral Assay
Details: for IC50: measured here: growth of uninfected CEM cells
Summary of the method: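 Soluble formazan readout of cell growth; CEM cells ± HIV-1; 5 drug concs. ≥50% protection → retest; ≥50% again = moderately active; reproducible 100% = confirmed active.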

Structure (SMILES)	EC50	IC50	outcome
CC1(C)C2C=CC1C(=O)CC2 (stereo not drawn)	> 389 µM	> 389 µM	–
O=P(O)(O)C1(P(=O)(O)O)CC1	> 251 µM	> 251 µM	–
CC1=CC(=O)/C(=C\N2C(=O)CC(=O)NC2=S)C(=O)O1	> 100 µM	> 100 µM	–
CC(=O)C1CC(C)=CCC12C(=O)Nc1ccccc12 (stereo not drawn)	> 195 µM	> 195 µM	–
C=CC(=O)NC(O)(C(=O)OCC)C(F)(F)F (stereo not drawn)	> 200 µM	> 200 µM	–
COC(=O)C1(C(=O)OC)CC(=O)c2cc3c(cc2-c2c(cc(OC)c(OC)c2OC)C1)OCO3	> 28.8 µM	> 28.8 µM	–
CC(C)(C)/C(O)=C\c1nc2ccc(C(F)(F)F)cc2[nH]c1=O	> 200 µM	> 200 µM	–
COC(=O)C1C2C(=O)NC(=O)C2C(c2ccc(-c3ccccc3)cc2)N1C1CCCCC1 (stereo not drawn)	> 135 µM	19.1 µM	–
NC(C/[N+]([O-])=N/O)C(=O)O (stereo not drawn)	> 11 µM	2.4 µM	–
O=C(O)C1(C(=O)O)CC1(C(=O)O)C(=O)O	–	–	inactive
Cc1cc(C)c2c(c1)C/C(=C\c1ccccc1C(=O)O)C2=O	–	–	inactive
COc1cccc(C2c3cc4c(cc3OC(NNC(N)=O)C2C)OCO4)c1O (stereo not drawn)	> 200 µM	1.12 µM	–
O=C1CSC(c2ccc(Cl)cc2)N1c1ccc(Oc2ccc(Cl)cc2)c(Cl)c1 (stereo not drawn)	> 200 µM	24 µM	–
O=c1oc2cc(O)ccc2c(O)c1C(c1ccc(/C=C/c2ccccc2)cc1)c1c(O)c2ccc(O)cc2oc1=O	> 200 µM	74.1 µM	–
COC1OC(Cn2c(C)nc(Br)c2Br)C(O)C(O)C1O (stereo not drawn)	33.9 µM	> 200 µM	–
CN(CCc1ccccn1)/[N+]([O-])=N/O (tested in a mixture with another compound)	> 4680 µM	3470 µM	–
CS(=O)(=O)c1noc(N)n1	> 1510 µM	1260 µM	–
O/N=C1/C(=C/c2ccc(Cl)cc2)CCCC1C(NO)c1ccc(Cl)cc1 (stereo not drawn)	> 13.5 µM	> 13.5 µM	–
COc1cc(/C=C2\CC/C(=C\c3cc(OC)c(O)c(OC)c3)C2=O)cc(OC)c1O	> 200 µM	1.02 µM	–
c1ccc(-c2cc(-c3ccccc3)nc(-c3ccncc3)c2)cc1	> 200 µM	> 200 µM	–
COCOc1ccc(Cn2c(=O)n(C)c(=O)c3c2ncn3C)cc1[N+](=O)[O-]	> 50.1 µM	> 50.1 µM	–
CC(C)(C)C1(C#N)C(=O)N(c2ccc(Cl)cc2)C12c1ccccc1-c1ccccc12 (stereo not drawn)	> 9.12 µM	> 9.12 µM	–
CCCCCCOP(OCCCCCC)OCCCCCC	–	–	inactive

Structure (SMILES)	EC50	IC50	outcome
NC1NCCC(=O)N1CCc1c[nH]c2ccccc12 (stereo not drawn)	> 200 µM	36.3 µM	–
O=C1c2ccccc2C(=O)C1(Cl)C(Cl)c1ccc([N+](=O)[O-])cc1 (stereo not drawn)	> 200 µM	12 µM	–
COC(=O)C(C)NC(=O)C(CCSC)NC(=O)C(Cc1ccccc1)NC(=O)OC(C)(C)C (stereo not drawn) (Boc-Phe-Met-Ala-OMe; configuration not given here)	> 200 µM	–	–
CN(C)/N=N/c1nc2c(c(=O)n(C)c(=O)n2C)n1CC1CO1 (stereo not drawn)	> 200 µM	12 µM	–
N#Cc1ncn(CCO)c1N	> 200 µM	> 200 µM	–
CC1C2CCC3C4CC=C5CC(N(C)C)CCC5(C)C4CCC32CN1C (stereo not drawn)	> 200 µM	41.7 µM	–
CC(C)(c1ccccc1)c1ccc(OC#N)cc1	> 57.5 µM	> 57.5 µM	–
CCCCc1ccc(Nc2nc3c(ncn3COCCBr)c(=O)[nH]2)cc1	> 200 µM	> 200 µM	–
BrC1=CC2C(C3C=CC2(Br)C32OCCO2)C12OCCO2 (stereo not drawn)	> 166 µM	> 166 µM	–
COC(CNC(=O)C(C)NC(=O)CCc1ccccc1)OC (stereo not drawn)	–	–	inactive
COCC(C)(C)N=CN1CCc2ccccc2C1	> 1000 µM	> 1000 µM	–
COC1/C=C/OC2(C)Oc3c(C)c(O)c4c(O)c(c(/C=N/N5CCCN(C)CC5)c(O)c4c3C2=O)NC(=O)/C(C)=C\C=C\C(C)C(O)C(C)C(O)C(C)C(OC(C)=O)C1C (stereo not drawn)	> 200 µM	89.1 µM	–
CCOC(=O)N/N=C(\CC)OCC	> 200 µM	> 200 µM	–
Nc1[nH]c(=S)c2c(N)n[nH]c2c1C(=O)Nc1ccc(Cl)cc1	> 200 µM	1.55 µM	–
CC1(C)c2ccccc2C(=O)C1(Br)Cc1ccccc1 (stereo not drawn)	> 200 µM	9.55 µM	–
COc1ccc2c(c1)OC[C@@H]1c3cc(O)c(OCc4ccccc4)cc3O[C@H]21	9.12 µM	24 µM	–
CC(=O)C1C(c2ccccc2)C2(C)OC(=O)C(C#N)C12C (stereo not drawn)	–	–	inactive
C[C@]12CC[C@H](OC(=O)CCC(=O)O)CC1=CC[C@@H]1C2CC[C@@]2(C)C1CC[C@@H]2c1ncc(-c2ccccc2)s1 (stereo partly drawn)	> 9.33 µM	> 9.33 µM	–
O=c1/c(=C\c2ccc(Cl)c(Cl)c2)sc2n1CCN=2	> 200 µM	> 200 µM	–
CCCCCOCC(O)CO (stereo not drawn)	–	–	inactive
CCC(C)C(NC(=O)c1ccccc1SC(=O)CCCC[n+]1ccccc1)C(=O)O (stereo not drawn)	23.4 µM	> 200 µM	–
Clc1ccc(C2SCc3nc4ccccc4n32)cc1 (stereo not drawn)	–	–	inactive
OC1(c2ccc(Cl)cc2)c2ccccc2C2=Nc3ccccc3CN21 (stereo not drawn)	> 200 µM	115 µM	–

Structure (SMILES)	EC50	IC50	outcome
CNC(=O)CCNC(=O)CCC(=O)N(C)C	> 200 µM	> 200 µM	–
COc1ccc(C2(OC)Oc3ccccc3C(=O)C2(O)O)cc1 (stereo not drawn)	> 200 µM	12.6 µM	–
Nc1cccc(Nc2nc3ccccc3nc2NS(=O)(=O)c2ccccc2)c1	> 200 µM	51.3 µM	–
COc1ccc(-c2cc(=O)c3ccccc3o2)c(OC)c1OC	> 200 µM	31.6 µM	–
CN1C(NN)=NS(=O)(=O)c2ccccc21	> 115 µM	95.5 µM	–
N.N.O=N[O-].O=N[O-].O=N[O-].O=N[O-].[Co+3].[Cs+]	–	–	inactive
COc1ccc(N=Nc2c(C)c(C#N)c(=S)n(C3OC(CO)C(O)C(O)C3O)c2C)cc1 (stereo not drawn)	> 200 µM	27.5 µM	–
O=C(O)c1ccccc1C(c1cc(Br)c(O)c(Br)c1)c1cc(Br)c(O)c(Br)c1	–	–	inactive
Cn1c(=O)c2c(nc3sc4ccccc4c(=O)n32)n(C)c1=O	> 151 µM	> 151 µM	–
Cc1ccccc1NC(=O)C(=O)C(C(=O)c1ccccc1F)C1OC(=O)c2ccccc21 (stereo not drawn)	> 302 µM	51.3 µM	–
Clc1cc(Cl)c(SSc2cc(Cl)c(Cl)cc2Cl)cc1Cl	> 200 µM	> 200 µM	–
CC(=O)CC(C)=O.CC(=O)CC(C)=O.CC(=O)CC(C)=O.[Mn]	> 200 µM	25.7 µM	–
Cc1cc2ccc(N)nc2[nH]c1=O	> 200 µM	> 200 µM	–
CSC1=N/C(=C\c2cccs2)C(=O)N1CN1CCCCC1	> 200 µM	> 200 µM	–
Oc1ccccc1-c1cnnc(-c2ccccc2O)c1	> 97.7 µM	18.2 µM	–
CCOC(=O)c1cccnc1C(OC(C)=O)OC(C)=O	> 891 µM	158 µM	–
O=C(/C=C/c1ccc(O)cc1)c1cc(O)cc(O)c1	> 200 µM	20.9 µM	–
O=[N+]([O-])c1ccc(NC(=S)Nc2ccccn2)cc1	> 200 µM	19.1 µM	–
Cc1cc2c(C(C)C)c(O)c(O)c(C=O)c2c(O)c1-c1c(C)c(N(c2cccc3ccccc23)c2cccc3ccccc23)c2c(C(C)C)c(O)c(O)c(C=O)c2c1O	–	–	inactive
CN(C)c1ccc(N=O)cc1	> 2 µM	1.12 µM	–
CCOC(=O)C(NC(=O)c1nc[nH]c1[N+](=O)[O-])C(C)C (stereo not drawn)	> 91.2 µM	63.1 µM	–
CC(C)c1cccc(C(C)C)c1NC(=O)C(=O)C1CCC2=C(Sc3ccccc3N2)C1=O (stereo not drawn)	> 204 µM	2.24 µM	–
CC(=O)OC1C2CCC1C1C2N=NN1c1ccc([N+](=O)[O-])cc1 (stereo not drawn)	> 151 µM	> 151 µM	–

Structure (SMILES)	EC50	IC50	outcome
c1ccc(COCC2OC3c4ccccc4COC3C2OCc2ccccc2)cc1 (stereo not drawn)	–	–	inactive
CC(C)OP(=O)(NC(=S)c1ccccc1)OC(C)C	> 316 µM	295 µM	–
CCOC(CC1(O)C(=O)N(Cc2ccccc2)c2ccccc21)OCC (stereo not drawn)	> 200 µM	> 200 µM	–
CN(C)CCNC(=O)c1cccc2c1Oc1c(cccc1[N+](=O)[O-])O2	> 20 µM	0.245 µM	–
O=C(O)c1ccccc1C(=O)c1ccc(O)cc1	> 200 µM	> 200 µM	–
Cc1cc(C)c(O)c(CN2CCN(C(C)C)CCN(C(C)C)CC2)c1	> 47.9 µM	13.8 µM	–
O=C1C2C=CC(n3[nH]c(=O)n(Cc4ccccc4)c3=O)CC2C(=O)N1c1cccc(Cl)c1 (stereo not drawn)	> 398 µM	> 398 µM	–
COc1cc(O)c2c(c1)C(=O)c1cc3c(c(O)c1C2=O)C(OC1OC(C)C(O)C(O)C1OC)C(OC)C(C)(O)C3=O (stereo not drawn)	> 200 µM	3.16 µM	–
Cn1c(=O)c2c(nc(Nc3ccc(Cl)cc3)n3c(=O)n(-c4ccccc4)c(=O)n23)n(C)c1=O	> 200 µM	145 µM	–
Cc1coc2c1[C@@H](O)[C@]1(C)[C@@H](C)CC[C@H](O)[C@]1(O)C2	> 200 µM	> 200 µM	–
CC1=C(CO)C(=O)OC(C(C)C2CCC3C4CC5OC56C(O)C(N5CC5)=CC(=O)C6(C)C4CCC23C)C1 (stereo not drawn)	–	–	inactive
O=C(c1ccccc1)N1C(=S)N(c2ccc([N+](=O)[O-])cc2)C(=Nc2ccccc2)C1=Nc1ccccc1	> 200 µM	1 µM	–
O=C(c1ccccc1)C(C(=O)c1ccccc1)C1(O)C(=O)c2ccccc2C1=O	–	–	inactive
N.N.N.N.O=N[O-].O=N[O-].O=[N+]([O-])[O-].[Co+3]	> 200 µM	> 200 µM	–
NC(=O)C(=CNC(=S)Nc1ccccc1)C(N)=O	> 200 µM	> 200 µM	–
O=C1CN(N2C(=O)CSC2C23CC4CC(CC(C4)C2)C3)C(=O)CN1c1ccccc1 (stereo not drawn)	> 151 µM	> 151 µM	–
COC(=O)C(CCc1cc(OC)ccc1I)C1=CCC2(CC1)OCCO2 (stereo not drawn)	> 38 µM	> 38 µM	–
[O-]c1c2c(nn1-c1ccc(F)cc1)c1ccccc1c[n+]2Cc1ccccc1	–	–	inactive
CN(C)CCC(O)(c1ccccc1)C(O)(CCN(C)C)c1ccccc1 (stereo not drawn)	> 72.4 µM	> 72.4 µM	–
COC(=O)c1ccc2cc1Nc1c(C#N)cnc(=S)n1-2	> 603 µM	363 µM	–
